Marks after values point to notes of the source that are not given here.
Test system: inseminated bovine oocytes co-cultured with cumulus-granulosa cells
Assay: Example 5: Hb (1 μg/ml) added to mBECM-C at different times of co-culture with CGs
Format: cell-based
Settings: for No of embryos developed to the 2-cell / % of embryos developed to the 2-cell: examined 48 h; for No of embryos developed to the 8-cell / % of embryos developed to the 8-cell: examined 60 h; for No of embryos developed to the 16-cell / % of embryos developed to the 16-cell: examined 120 h; for No of embryos developed to the Morula / % of embryos developed to the Morula: examined 144 h; for No of embryos developed to the Blastocyst / % of embryos developed to the Blastocyst: examined 192 h
Method: mBECM containing 10 μM β-mercaptoethanol was used to culture embryos, as described in J. Lim et al., “Roles of growth factors in the development of bovine embryos fertilized in vitro and cultured singly in a defined medium,” Reprod. Fertil. Dev., 8, 1199-1205 (1996). To culture individual 8-cell embryos we used mBECM supplemented with 1 ng/ml platelet derived growth factor type AB (PDGF; Upstate Biotechnology Inc., Lake Placid, N.Y.), 1 ng/ml transforming growth factor-β (TGF; R & D System, Minneapolis, Minn.), 50 ng/ml arachidonic acid (AA; Cayman Chemical Co., Ann Arbor, Mich.), 100 μM glutathione (GSH; Sigma Co.) and 1 mg/ml polyvinyl alcohol (PVA) (mBECM-S). mBECM to which 10% (v/v) FBS was added (mBECM-C) was used for co-culturing inseminated zygotes with CGs and for producing 8-cell embryos. Osmolarity of the medium was maintained within the range of 265-290 mOsm.
The bovine cumulus-oocyte complexes (COCs) used were collected in Madison, Wis. (BOMED, Inc.), and were shipped in 2-ml of maturation medium in a battery powered incubator via overnight express mail service. Oocytes matured during transit and arrived within 24 h after exposure to maturation medium, pre-equilibrated at 39° C. in 5% CO2 in air. At 22-24 h after exposure to the medium, the COCs were inseminated in vitro as described in J. Lim et al., “Intracytoplasmic glutathione concentration and the role of β-mercaptoethanol in preimplantation development of bovine embryos,” Theriogenology, 46, 429-439 (1996). At 18 h post-insemination, COCs were cultured in groups (30-35 embryos) in a 4-well multidish (Nunc, Roskilde, Denmark) containing 0.8-ml of mBECM-C. Embryos were dislodged from CGs at 36-48 h post-insemination.
In Example 1, embryos (83-85 per group) collected 18 h post-insemination were cultured in mBECM-C, to which 0, 0.008, or 0.04 mM SNP was added at 18 or 60 h post-insemination. In Example 2, 8-cell embryos (80 per group) were produced in a co-culture system containing CGs and mBECM-C, and then beginning at 60 h post-insemination were cultured singly in a defined culture medium (mBECM-S), to which 0, 0.0016, 0.008, or 0.04 mM of SNP (S-0501, Sigma Co.) was added. In Example 3 embryos, either uncleaved (n=99) or developed to the 2-cell stage (90), were collected 48 h post-insemination; and cleaved embryos, either developed to the morula stage (69) or degenerate (63) were collected 144 h post-insemination. NO metabolites were then measured in the embryos. In Example 4, three groups of 95 zygotes each were co-cultured with CGs in mBECM-C, to which 0, 1, or 10 μg/ml Hb (bovine, mainly methemoglobin, H-2500, Sigma Co.) was added. […] In Example 6, inseminated oocytes (93 per group) were cultured in the presence or absence of CGs in mBECM-C to which either 0 or 1 μg/ml Hb was added. In Example 7, 8-cell embryos (100 per group), obtained after culture in mBECM-C supplemented with Hb (1 μg/ml), were cultured singly in mBECM-S, with or without Hb.
Oocytes or 8-cell embryos were randomly and equally allocated to each treatment group. In Examples 1, 2, and 4-7, oocytes or embryos that had developed to the 2-cell, 8-cell, >8-cell, 16-cell morula, and blastocyst stages were individually scored ‘1’ (developed) at 48, 60, 96, 120, 144 and 192 h post-insemination, respectively. […] Sums of the scores in each stage of development were evaluated by analysis of variance (ANOVA) using the general linear model (PROC-GLM) in the SAS program software. In Example 3, concentrations of NO metabolites in embryos were subjected to ANOVA. […] Differences were regarded as statistically significant where P values were less than 0.05.

[1] = Hb 1 μg/ml added 18 h post-insemination (1-cell)
[2] = Hb 1 μg/ml added 18 h post-insemination (1-cell), 104 oocytes
[3] = Hb 1 μg/ml added 60 h post-insemination (8-cell)
[4] = Hb 1 μg/ml added 60 h post-insemination (8-cell), 104 oocytes
[5] = Hb 1 μg/ml added 144 h post-insemination (Morula)
[6] = Hb 1 μg/ml added 144 h post-insemination (Morula), 103 oocytes

## hemoglobin [Hb]
[1]
  Ratio of blastocysts to morulae: 0.74
  % of embryos developed to the 2-cell: 73%
  % of embryos developed to the 8-cell: 50%
  % of embryos developed to the 16-cell: 43%
  % of embryos developed to the Morula: 33%
  % of embryos developed to the Blastocyst: 24%
[2]
  No of embryos developed to the 2-cell: 76
  No of embryos developed to the 8-cell: 52
  No of embryos developed to the 16-cell: 45
  No of embryos developed to the Morula: 34
  No of embryos developed to the Blastocyst: 25
[3]
  Ratio of blastocysts to morulae: 1.00
  % of embryos developed to the 2-cell: 64%
  % of embryos developed to the 8-cell: 38%
  % of embryos developed to the 16-cell: 34%
  % of embryos developed to the Morula: 29%
  % of embryos developed to the Blastocyst: 29%
[4]
  No of embryos developed to the 2-cell: 67
  No of embryos developed to the 8-cell: 40
  No of embryos developed to the 16-cell: 35
  No of embryos developed to the Morula: 30
  No of embryos developed to the Blastocyst: 30
[5]
  Ratio of blastocysts to morulae: 0.96
  % of embryos developed to the 2-cell: 62%
  % of embryos developed to the 8-cell: 33%
  % of embryos developed to the 16-cell: 27%
  % of embryos developed to the Morula: 22%
  % of embryos developed to the Blastocyst: 22 (22)^c,d %
[6]
  No of embryos developed to the 2-cell: 64
  No of embryos developed to the 8-cell: 34
  No of embryos developed to the 16-cell: 28
  No of embryos developed to the Morula: 23
  No of embryos developed to the Blastocyst: 22 (22)^c,d
Hb 1 μg/ml added at 18 or 60 h post-insemination, controls 13%
  proportion of blastocysts: 24-29%
